Results: article PMC6352943, “Novel pyrazolo[3,4-d]pyrimidines: design, synthesis, anticancer activity, dual EGFR/ErbB2 receptor tyrosine kinases inhibitory activity, effects on cell cycle profile and caspase-3-mediated apoptosis” (Journal of Enzyme Inhibition and Medicinal Chemistry, 2019)

Experiments:
IGROV1 = experiment: NCI 60 cell line single dose screen (SRB); format: cell-based; conditions: Homo sapiens, IGROV-1; IGROV1 (ovarian cancer), single dose 10^−5 M, 48 h; read-out: Growth inhibition percentage
Method in brief: (§1)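 Cells were plated and grown 24 h at 37 °C, 5% CO2 before compound addition from DMSO stock, then exposed 48 h. Adherent cells were fixed with cold TCA (final 10%) and suspension cells with 16% TCA. SRB-stained protein was read at 515 nm and percent growth was calculated against time-zero and untreated plates.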

TK-10 = experiment: NCI 60 cell line single dose screen (SRB); format: cell-based; conditions: Homo sapiens; TK-10 (renal cancer), single dose 10^−5 M, 48 h; read-out: Growth inhibition percentage
Method in brief: as §1

SNB-19 = experiment: NCI 60 cell line single dose screen (SRB); format: cell-based; conditions: Homo sapiens; SNB-19 (CNS cancer), single dose 10^−5 M, 48 h; read-out: Growth inhibition percentage
Method in brief: as §1

M14 = experiment: NCI 60 cell line single dose screen (SRB); format: cell-based; conditions: Homo sapiens; M14 (melanoma), single dose 10^−5 M, 48 h; read-out: Growth inhibition percentage
Method in brief: as §1

A549/ATCC = experiment: NCI 60 cell line single dose screen (SRB); format: cell-based; conditions: Homo sapiens; A549/ATCC (non-small cell lung cancer), single dose 10^−5 M, 48 h; read-out: Growth inhibition percentage
Method in brief: as §1

BT-549 = experiment: NCI 60 cell line single dose screen (SRB); format: cell-based; conditions: Homo sapiens; BT-549 (breast cancer), single dose 10^−5 M, 48 h; read-out: Growth inhibition percentage
Method in brief: as §1

SK-OV-3 = experiment: NCI 60 cell line single dose screen (SRB); format: cell-based; conditions: Homo sapiens; SK-OV-3 (ovarian cancer), single dose 10^−5 M, 48 h; read-out: Growth inhibition percentage
Method in brief: as §1

SN12C = experiment: NCI 60 cell line single dose screen (SRB); format: cell-based; conditions: Homo sapiens; SN12C (renal cancer), single dose 10^−5 M, 48 h; read-out: Growth inhibition percentage
Method in brief: as §1

CCRF-CEM = experiment: NCI 60 cell line single dose screen (SRB); format: cell-based; conditions: Homo sapiens; CCRF-CEM (leukemia), single dose 10^−5 M, 48 h; read-out: Growth inhibition percentage
Method in brief: as §1

HCT-15 = experiment: NCI 60 cell line single dose screen (SRB); format: cell-based; conditions: Homo sapiens; HCT-15 (colon cancer), single dose 10^−5 M, 48 h; read-out: Growth inhibition percentage
Method in brief: as §1

HL-60(TB) = experiment: NCI 60 cell line single dose screen (SRB); format: cell-based; conditions: Homo sapiens; HL-60(TB) (leukemia), single dose 10^−5 M, 48 h; read-out: Growth inhibition percentage
Method in brief: as §1

SF-593 = experiment: NCI 60 cell line single dose screen (SRB); format: cell-based; conditions: Homo sapiens, SF-593 (CNS cancer), single dose 10^−5 M, 48 h, read-out: Growth inhibition percentage
Method in brief: as §1

UO-31 = experiment: NCI 60 cell line single dose screen (SRB); format: cell-based; conditions: Homo sapiens; UO-31 (renal cancer), single dose 10^−5 M, 48 h; read-out: Growth inhibition percentage
Method in brief: as §1

NCI-H522 = experiment: NCI 60 cell line single dose screen (SRB); format: cell-based; conditions: Homo sapiens; NCI-H522 (non-small cell lung cancer), single dose 10^−5 M, 48 h; read-out: Growth inhibition percentage
Method in brief: as §1

SNB-75 = experiment: NCI 60 cell line single dose screen (SRB); format: cell-based; conditions: Homo sapiens; SNB-75 (CNS cancer), single dose 10^−5 M, 48 h; read-out: Growth inhibition percentage
Method in brief: as §1

HOP-92 = experiment: NCI 60 cell line single dose screen (SRB); format: cell-based; conditions: Homo sapiens; HOP-92 (non-small cell lung cancer), single dose 10^−5 M, 48 h; read-out: Growth inhibition percentage
Method in brief: as §1

SMILES	inhibition at 10 µM (IGROV1) [%]	inhibition at 10 µM (TK-10) [%]	inhibition at 10 µM (SNB-19) [%]	inhibition at 10 µM (M14) [%]	inhibition at 10 µM (A549/ATCC) [%]	inhibition at 10 µM (BT-549) [%]	inhibition at 10 µM (SK-OV-3) [%]	inhibition at 10 µM (SN12C) [%]	inhibition at 10 µM (CCRF-CEM) [%]	inhibition at 10 µM (HCT-15) [%]	inhibition at 10 µM (HL-60(TB)) [%]	inhibition at 10 µM (SF-593) [%]	inhibition at 10 µM (UO-31) [%]	inhibition at 10 µM (NCI-H522) [%]	inhibition at 10 µM (SNB-75) [%]	inhibition at 10 µM (HOP-92) [%]	melting point [°C]
Cc1nn(-c2ccc(F)cc2)c2ncnc(N3CCN(c4ccc(Cl)cc4)CC3)c12 [Compound 8c, 4–(4-(4-Chlorophenyl)piperazin-1-yl)-1–(4-fluorophenyl)-3-methyl-1H-pyrazolo[3,4-d]pyrimidine]	25.6	-30.9	-4.77	-0.94	-3.31	-4.23	12.6	13.3	-8.74	-8.49	25.5	3.89	34.9	8.23	0.02	15.9	167 to 169
COc1ccc(N2CCN(c3ncnc4c3c(C)nn4-c3ccc(F)cc3)CC2)cc1 [Compound 8d, 1–(4-Fluorophenyl)-4–(4-(4-methoxyphenyl)piperazin-1-yl)-3-methyl-1H-pyrazolo[3,4-d]pyrimidine]	9.45	-48	2.02	3.95	-4.08	2.13	3.69	6.31	0.86	-5.55	11.8	8.43	21.3	3.59	5.93	4.73	–
COc1cc(C=NNc2ncnc3c2c(C)nn3-c2ccc(F)cc2)ccc1O [Compound 10b, 1–(4-Fluorophenyl)-4–(2-(4-hydroxy-3-methoxybenzylidene)-hydrazinyl)-3-methyl-1H-pyrazolo[3,4-d]pyrimidine]	20.6	11.3	6.67	-2.1	2.36	9.63	0.81	14.9	38	18.9	1.69	3.85	35.6	27.1	17.5	39.5	221 to 223
Cc1nn(-c2ccc(F)cc2)c2ncnc(N3CCOCC3)c12 [Compound 8a, 1–(4-Fluorophenyl)-3-methyl-4-morpholino-1H-pyrazolo[3,4-d]pyrimidine]	-3.29	9.75	5.14	-4.47	-0.09	3.96	-7.07	1.12	2.31	-2.04	22.5	-8.46	5.57	8.03	0.92	9.27	–
Cc1ccc(Nc2ncnc3c2c(C)nn3-c2ccc(F)cc2)cc1 [Compound 7c, 1–(4-Fluorophenyl)-3-methyl-N-(p-tolyl)-1H-pyrazolo[3,4-d]-pyrimidin-4-amine]	1.54	9.04	7.21	0.75	3.08	-8.83	-16.7	48.4	-8.18	-0.49	16	-1.94	8.66	11	-5.2	3.79	–
Cc1nn(-c2ccc(F)cc2)c2ncnc(Cl)c12 [Compound 6, 4-Chloro-1–(4-fluorophenyl)-3-methyl-1H-pyrazolo[3,4-d]pyrimidine]	24.4	-23	7.79	5.89	11.6	-11.5	13.7	1.02	1.47	1.32	14	-7.81	11.8	59	6.36	7.91	178 to 180
COc1cc(C=NNc2ncnc3c2c(C)nn3-c2ccc(F)cc2)cc(OC)c1OC [Compound 10c, 1–(4-Fluorophenyl)-3-methyl-4–(2-(3,4,5-trimethoxybenzylidene)-hydrazinyl)-1H-pyrazolo[3,4-d]pyrimidine]	26.6	-36.3	-4.87	2.73	-0.67	-1.06	7.06	4.99	4.81	-5.3	-4.11	13.2	31.1	7.26	19.5	40.4	222 to 224
Cc1nn(-c2ccc(F)cc2)c2ncnc(Nc3ccc(F)c(Cl)c3)c12 [Compound 7d, N-(3-Chloro-4-fluorophenyl)-1–(4-fluorophenyl)-3-methyl-1H-pyrazolo[3,4-d] pyrimidin-4-amine]	27.6	-6.68	20.4	1.01	40.5	-4.84	13.9	21.5	0.7	2.75	15	22.6	25.5	10.4	25	22.8	–
